According to US9682126B2, “Postprandial gastrokinetic agent” (ZERIA PHARMACEUTICAL CO., LTD., priority 2013, dated 2017):
Like-named read-outs stand apart in the source and are kept apart here. Ends that are not written are not given here. * marks the point of attachment. Octanoyl = CCCCCCCC(=O)*

Legend:
subjects = settings: cited from earlier work
[1] = system: isolated stomach of Suncus murinus; settings: ghrelin alone, even at a high dose, in vitro; cited from earlier work
Suncus murinus [2] = experiment: Gastric motility in interdigestive period, sham-operated vs vagotomized (Example 2); assay type: in vivo; settings: for amplitude of spontaneous phase II contractions: ghrelin 0.1, 0.3, 1, 3, or 10 μg/kg/min iv over 10 minutes in phase II
Experimental: Each of Suncus motilin (Scrum Inc., Tokyo, Japan) and human ghrelin (Asubio Pharma Co., Ltd., Hyogo, Japan) were dissolved in PBS containing 0.1% bovine serum albumin. Suncus murinus (male, outbred KAT strain, 7 to 15 weeks old, 60 to 100 g) was used for the experiment. Each animal was bred in a plastic cage provided with an empty can as a nest box under the following conditions: temperature at 23±2° C., illumination between 8:00 and 20:00, and free intake of commercial trout feed (SP, Nippon Formula Feed Mfg Co., Ltd., Yokohama, Japan). After 3 hours of fasting, Suncus murinus was anesthetized by an intraperitoneal injection of pentobarbital sodium (50 mg/kg). Through a midline incision, the stomach was exposed outside the body, and a force transducer was fixed via suture in the circular muscle direction of the body of stomach. The wire extending from the force transducer was inserted through the abdominal wall, passed under the skin, and exposed at the back of the neck. Thereafter, truncal vagotomy was performed. A lower portion of the esophagus was exposed, both branches of the vagus nerve were isolated, and about 3 mm of the vagus nerve was excised above the hepatic branch and the celiac branch. For sham-operated Suncus murinus, the vagus nerve was exposed, but not excised. An intravenous catheter was inserted in the right jugular, and extracorporeally fixed to the back. The catheter was filled with heparinized saline (100 units/mL) to prevent clotting. From 2 days after the operation, the gastric motility was recorded. Administration of motilin was initiated 10 minutes after completion of spontaneous phase III. Synthesized suncus motilin was continuously injected at 50 ng/kg/min over 10 minutes, and the continuously injected amount was 50 μL/100 g BW/min. Administration of ghrelin was initiated 10 minutes after completion of spontaneous phase II. […] Amplified analog signals were converted into digital signals by an analog-to-digital converter (ADC-20, Pico Technology Ltd, St Neots, UK), and the digital signals were recorded on a computer. Phase III contractions of MMC in conscious Suncus murinus were defined on the basis of those in dogs and humans (that is, clustered contractions with an amplitude of 8 g or more that lasts for 5 minutes or more). Gastric motility was quantitated using a motility index (MI). A motility index (MI) based on a drug was calculated using the following equation. MI (%)=A/B×100 A: AUC of contractions for 10 minutes during which the drug was administered B: […] Statistical analysis After ANOVA, Student's t test was performed.

Suncus murinus [3] = experiment: Postprandial gastric motility, force transducer on stomach, motility index MI (Example 1); assay type: in vivo; settings: ghrelin 50 ng/kg iv after 10-min feed intake
Experimental: Effects of administration of each of ghrelin and motilin and co-administration of ghrelin and motilin on postprandial gastric motility in Suncus murinus were studied. Each of Suncus motilin (Scrum Inc., Tokyo, Japan) and human ghrelin (Asubio Pharma Co., Ltd., Hyogo, Japan) was dissolved in phosphate buffered saline (PBS) containing 0.1% bovine serum albumin. Suncus murinus (male, outbred KAT strain, 8 to 9 weeks old, 73 to 90 g) was used for the experiment. Each animal was bred in a plastic cage provided with an empty can as a nest box under the following conditions: temperature at 23±2° C., illumination between 8:00 and 20:00, and free intake of commercial trout feed (SP, Nippon Formula Feed Mfg Co., Ltd., Yokohama, Japan). After 3 hours of fasting, Suncus murinus was anesthetized by an intraperitoneal injection of pentobarbital sodium (50 mg/kg). Through a midline incision, the stomach was exposed outside the body, and a force transducer was fixed via suture in the circular muscle direction of the body of stomach. […] Amplified analog signals were converted into digital signals by an analog-to-digital converter (ADC-20, Pico Technology Ltd, St Neots, UK), and the digital signals were recorded on a computer. […] Gastric motility was quantitated using a motility index (MI). A motility index (MI) based on a drug was calculated using the following equation. […]

Suncus murinus [4] = experiment: Postprandial motility by co-administration of ghrelin and motilin, ΔMI (Example 3); assay type: in vivo
Experimental: Each of Suncus motilin (Scrum Inc., Tokyo, Japan) and human ghrelin (Asubio Pharma Co., Ltd., Hyogo, Japan) was dissolved in PBS containing 0.1% bovine serum albumin.
Suncus murinus (male, outbred KAT strain, 7 to 39 weeks old, 56 to 91 g) was used for the experiment. The Each animal was bred in a plastic cage provided with an empty can as a nest box under the following conditions: temperature at 23±2° C., illumination between 8:00 and 20:00, and free intake of commercial trout feed (SP, Nippon Formula Feed Mfg Co., Ltd., Yokohama, Japan).
After 3 hours of fasting, Suncus murinus was anesthetized by an intraperitoneal injection of pentobarbital sodium (50 mg/kg). Through a midline incision, the stomach was exposed outside the body, and a force transducer was fixed via suture in the circular muscle direction of the body of stomach. The wire extending from the force transducer was inserted through the abdominal wall, passed under the skin, and exposed at the back of the neck.
An intravenous catheter was inserted in the right jugular, and extracorporeally fixed to the back. The catheter was filled with heparinized saline (100 units/mL) to prevent clotting.
Each of the operated Suncus murinus was allowed to recover for several days.
Drug administration and measurement of gastric motility were performed in the conscious, free-moving state without anesthesia.
2 g of feed was given to each Suncus murinus fastened (for 8 to 10 hours) for 10 minutes. After the intake of feed for 10 minutes, ghrelin (50, 1,000, or 3,000 ng/kg), motilin (300, 500, 1,000, or 3,000 ng/kg), or a mixed solution of ghrelin (15 or 50 ng/kg) and motilin (100, 200, or 300 ng/kg) was intravenously administered through a jugular vein catheter rapidly.
Amplified analog signals were converted into digital signals by an analog-to-digital converter (ADC-20, Pico Technology Ltd, St Neots, UK), and the digital signals were recorded on a computer.
Phase III contractions of MMC in conscious Suncus murinus were defined on the basis of those in dogs and humans (that is, clustered contractions with an amplitude of 8 g or more that lasts for 5 minutes or more).
Gastric motility was quantitated using a motility index (ΔMI). A motility index (ΔMI) based on a drug was calculated using the following equation. ΔMI (%)=(A−C)/B×100 A: AUC of contractions for 10 minutes during which the drug was administered B: AUC of 10-minute spontaneous phase III contractions appeared before administration of the drug C: (AUC of contractions appeared for 5 minutes between 5 and 10 minutes after the intake of feed)×2 (2) Results (FIG. 9) A. Action of Ghrelin Alone

[5] = ghrelin 50 ng/kg iv after feed intake
[6] = ghrelin 1,000 ng/kg iv after feed intake
[7] = ghrelin 3,000 ng/kg iv after feed intake

Compound	gastric emptying (subjects; mitemcinal administered to fasting subjects)	gastric contractions [1]	MI during administration of ghrelin, sham-operated compared with vagotomized (Suncus murinus [2]; phase II of MMC, fasted)	amplitude of spontaneous phase II contractions (Suncus murinus [2]; sham-operated)	amplitude of spontaneous phase II contractions (Suncus murinus [2]; vagotomized)	contractions of the body of the stomach (Suncus murinus [3])	gastric emptying (subjects; continuous intravenous or massive administration of ghrelin after food intake, healthy subjects and patients with diabetes)	Motility Index (ΔMI) (Suncus murinus [4]; [5])	contractions of the body of the stomach (Suncus murinus [4]; [5])	Motility Index (ΔMI) (Suncus murinus [4]; [6])	contractions of the body of the stomach (Suncus murinus [4]; [6])	Motility Index (ΔMI) (Suncus murinus [4]; [7])	contractions of the body of the stomach (Suncus murinus [4]; [7])
CC[C@H]1OC(=O)[C@H](C)[C@@H](O[C@H]2C[C@@](C)(OC)[C@@H](O)[C@H](C)O2)[C@H](C)[C@@H](O[C@@H]2O[C@H](C)C[C@H](N(C)C(C)C)[C@H]2O)[C@@]2(C)CC(C)=C(O2)[C@H](C)C(=O)[C@]1(C)OC [mitemcinal]	enhances gastric emptying												
ghrelin: human ghrelin (Asubio Pharma); 28-amino acid residue peptide, hydroxyl group of serine at position 3 esterified by octanoic acid (GSS(Octanoyl)FLSPEHQRVQQRKESKKPPAKLQPR; UniProt Q9UBU3 24-51, looked up)		does not accelerate gastric contractions	higher	amplified the amplitude of spontaneous phase II contractions	did not change the amplitude of spontaneous phase II contractions	did not induce contractions of the body of the stomach	accelerates gastric emptying	About 2.8%	did not induce contractions of the body of the stomach	About 7.6%	did not induce contractions of the body of the stomach	About 0.03%	did not induce contractions of the body of the stomach
